US11351178B2, “Selective HDAC6 inhibitors” (ITALFARMACO S.P.A., priority 2017, dated 2022)

target: T1, recombinant human HDAC6 (Homo sapiens, UniProt Q9UBN7); assay: Enzymatic screening on recombinant human HDAC6; format: biochemical; conditions: Table 2; read-out: HDAC6 IC50
T1 sequence (Q9UBN7 1-1215): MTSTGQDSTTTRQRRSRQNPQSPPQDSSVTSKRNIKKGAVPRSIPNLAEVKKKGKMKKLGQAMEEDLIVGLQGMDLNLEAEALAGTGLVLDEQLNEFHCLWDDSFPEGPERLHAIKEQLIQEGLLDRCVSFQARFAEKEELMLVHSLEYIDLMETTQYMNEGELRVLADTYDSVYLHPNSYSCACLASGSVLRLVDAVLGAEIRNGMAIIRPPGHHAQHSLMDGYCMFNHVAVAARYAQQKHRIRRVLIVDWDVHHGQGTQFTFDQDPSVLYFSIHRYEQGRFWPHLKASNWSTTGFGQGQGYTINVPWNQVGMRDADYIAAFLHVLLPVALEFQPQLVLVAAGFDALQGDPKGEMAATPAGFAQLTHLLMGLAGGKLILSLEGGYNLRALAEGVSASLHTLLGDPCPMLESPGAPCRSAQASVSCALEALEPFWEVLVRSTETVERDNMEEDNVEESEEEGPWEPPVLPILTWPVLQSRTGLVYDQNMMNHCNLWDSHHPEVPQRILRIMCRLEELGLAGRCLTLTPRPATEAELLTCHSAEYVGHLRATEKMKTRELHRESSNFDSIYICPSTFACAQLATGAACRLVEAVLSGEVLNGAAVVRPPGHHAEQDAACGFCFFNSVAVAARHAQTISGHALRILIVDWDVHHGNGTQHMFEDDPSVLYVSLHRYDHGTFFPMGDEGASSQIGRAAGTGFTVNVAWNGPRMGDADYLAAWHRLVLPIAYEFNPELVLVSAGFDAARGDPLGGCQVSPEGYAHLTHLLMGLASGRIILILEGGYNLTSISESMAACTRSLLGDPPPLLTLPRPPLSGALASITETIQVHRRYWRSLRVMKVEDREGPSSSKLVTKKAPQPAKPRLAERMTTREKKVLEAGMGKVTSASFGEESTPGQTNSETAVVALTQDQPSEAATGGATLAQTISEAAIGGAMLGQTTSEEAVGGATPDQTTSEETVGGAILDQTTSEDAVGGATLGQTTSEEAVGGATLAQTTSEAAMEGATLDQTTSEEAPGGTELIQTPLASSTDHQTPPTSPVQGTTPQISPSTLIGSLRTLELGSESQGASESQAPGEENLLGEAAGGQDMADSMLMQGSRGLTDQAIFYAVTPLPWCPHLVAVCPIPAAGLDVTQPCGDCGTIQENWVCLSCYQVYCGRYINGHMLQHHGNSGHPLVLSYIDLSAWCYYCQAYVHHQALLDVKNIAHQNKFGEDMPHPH
Method: Enzymatic activity on recombinant human HDAC6 and HDAC3 was evaluated (Table 2) for each synthesized compound.
After a period of incubation at 30° C. (incubation times vary for different isoforms and are shown in table 1) 25 μL of solution containing the substrate were added. As substrate, FLUOR DE LYS® deacetylase substrate (Enzo Life Sciences, cat #BML-K1104, FdL), FLUOR DE LYS®-Green substrate (Enzo Life Sciences, cat #BML-K1572 FdL_G) and trifluoroacetyl-L-lysine (Tfal)-2× concentrated solution in 25 mM Tris-HCl, pH 8, 130 mM NaCl 0.05% Tween-20 10% glycerol) were used. Following a reaction period at 30° C.

| Structure (SMILES) | IC50 [nM] |
| --- | --- |
| COc1ccc(CCC(=O)N[C@@H](Cc2cscn2)c2nc(Cc3ccc(C(=O)NO)cc3)no2)cc1OC [comp. 21, 3-(3,4-dimethoxyphenyl)-N-[(1S)-1-[3-[[4-(hydroxycarbamoyl)phenyl]methyl]-1,2,4-oxadiazol-5-yl]-2-thiazol-4-yl-ethyl]propanamide] | 116 |
| O=C(NO)c1ccc(Sc2nnc(-c3ccccc3)n2-c2ccccc2)cc1 [comp. 24, 4-[(4,5-diphenyl-1,2,4-triazol-3-yl)sulfanyl]benzenecarbohydroxamic acid] | 56 |
| COc1ccc(Cc2nnc(-c3ccc(C(=O)NO)cc3)o2)cc1OC [comp. 26, 4-[5-[(3,4-dimethoxyphenyl)methyl]-1,3,4-oxadiazol-2-yl]benzenecarbohydroxamic acid] | 258 |
| O=C(NO)c1ccc(Sc2nnc(Cc3ccccc3)n2-c2ccc(F)cc2)cc1 [comp. 27, 4-[[5-benzyl-4-(4-fluorophenyl)-1,2,4-triazol-3-yl]sulfanyl]benzenecarbohydroxamic acid;2,2,2-trifluoroacetic acid] | 77 |
| O=C(NO)c1ccc(Cn2nnc(-c3ccc(Cl)s3)n2)cc1 [comp. 32, 4-[[5-(5-chloro-2-thienyl)tetrazol-2-yl]methyl]benzenecarbohydroxamic acid] | 6 |
| O=C(NO)c1ccc(Cn2nnc(-c3ccc(F)cc3)n2)cc1 [comp. 34, 4-[[5-(4-fluorophenyl)tetrazol-2-yl]methyl]benzenecarbohydroxamic acid] | 7 |
| COc1ccc(-c2nnn(Cc3ccc(C(=O)NO)cc3)n2)cc1 [comp. 35, 4-[[5-(4-methoxyphenyl)tetrazol-2-yl]methyl]benzenecarbohydroxamic acid] | 5 |
| Cc1ccc(-c2nnn(Cc3ccc(C(=O)NO)cc3)n2)s1 [comp. 41, 4-[[5-(5-methyl-2-thienyl)tetrazol-2-yl]methyl]benzenecarbohydroxamic acid] | 4 |
| O=C(NO)c1ccc(Cn2nnc(-c3scc4c3OCCO4)n2)cc1 [comp. 43, 4-[[5-(2,3-dihydrothieno[3,4-b][1,4]dioxin-5-yl)tetrazol-2-yl]methyl]benzenecarbohydroxamic acid] | 3 |
| O=C(NO)c1ccc(Cn2nnc(-c3ccccc3F)n2)cc1 [comp. 46, 4-[[5-(2-fluorophenyl)tetrazol-2-yl]methyl]benzenecarbohydroxamic acid] | 5 |
| N[C@@H](Cc1cscn1)c1nc(Cc2ccc(C(=O)NO)cc2)no1 [comp. 48, (S)-4-((5-(1-amino-2-(thiazol-4-yl)ethyl)-1,2,4-oxadiazol-3-yl)methyl)-N-hydroxybenzamide 2,2,2-trifluoroacetate] | 257 |
| O=C(NO)c1ccc(Cc2nc(-c3ccc(Cl)cc3)nn2Cc2ccccc2)cc1 [comp. 51, 4-[[2-benzyl-5-(4-chlorophenyl)-1,2,4-triazol-3-yl]methyl]benzenecarbohydroxamic acid] | 368 |
| O=C(NO)c1ccc(Cc2nc(-c3cccs3)nn2-c2ccccn2)cc1 [comp. 52, 4-[[2-(2-pyridyl)-5-(2-thienyl)-1,2,4-triazol-3-yl]methyl]benzenecarbohydroxamic acid] | 344 |
| COc1ccccc1-n1nc(-c2cccs2)nc1Cc1ccc(C(=O)NO)cc1 [comp. 53, 4-[[2-(2-methoxyphenyl)-5-(2-thienyl)-1,2,4-triazol-3-yl]methyl]benzenecarbohydroxamic acid] | 333 |
| O=C(NO)c1ccc(Nc2nnc(-c3ccccc3)o2)cc1 [comp. 60, 4-[(5-phenyl-1,3,4-oxadiazol-2-yl)amino]benzenecarbohydroxamic acid] | 136 |
| O=C(NO)c1ccc(Nc2nnc(-c3cccc(S(=O)(=O)N4CCCC4)c3)o2)cc1 [comp. 63, 4-[[5-(3-pyrrolidin-1-ylsulfonylphenyl)-1,3,4-oxadiazol-2-yl]amino]benzenecarbohydroxamic acid] | 682 |

| Structure (SMILES) | IC50 [nM] |
| --- | --- |
| O=C(NO)c1ccc(Cc2nnc(-c3cccc(S(=O)(=O)N4CCOCC4)c3)o2)cc1 [comp. 64, 4-[[5-(3-morpholinosulfonylphenyl)-1,3,4-oxadiazol-2-yl]methyl]benzenecarbohydroxamic acid] | 13 |
| O=C(NO)c1ccc(Cc2nnc(-c3ccc(S(=O)(=O)N4CCCC4)cc3)o2)cc1 [comp. 69, 4-[[5-(4-pyrrolidin-1-ylsulfonylphenyl)-1,3,4-oxadiazol-2-yl]methyl]benzenecarbohydroxamic acid] | 11 |
| O=C(NO)c1ccc(Sc2nc(C3CC3)n(-c3ccccc3)n2)cc1 [comp. 72, 4-[(5-cyclopropyl-1-phenyl-1,2,4-triazol-3-yl)sulfanyl]benzenecarbohydroxamic acid] | 162 |
| CN(C)c1ccc(-c2nnc(Sc3ccc(C(=O)NO)cc3)n2C)cc1 [comp. 73, 4-[[5-[4-(dimethylamino)phenyl]-4-methyl-1,2,4-triazol-3-yl]sulfanyl]benzenecarbohydroxamic acid] | 8 |
| O=C(NO)c1ccc(Cn2nnnc2-c2ccco2)cc1 [comp. 86, 4-[[5-(2-furyl)tetrazol-1-yl]methyl]benzenecarbohydroxamic acid] | 39 |
| O=C(NO)c1ccc(Cn2nnnc2-c2nccc3ccccc23)cc1 [comp. 88, 4-[[5-(1-isoquinolyl)tetrazol-1-yl]methyl]benzenecarbohydroxamic acid] | 2 |
| O=C(NO)c1ccc(Cn2nnc(-c3ccc4ccccc4n3)n2)cc1 [comp. 90, 4-[[5-(2-quinolyl)tetrazol-2-yl]methyl]benzenecarbohydroxamic acid] | 20 |
| O=C(NO)c1cc(F)c(Sc2nnc(-c3cccs3)[nH]2)c(F)c1 [comp. 97, 3,5-difluoro-4-[[5-(2-thienyl)-4H-1,2,4-triazol-3-yl]sulfanyl]benzenecarbohydroxamic acid] | 51 |
| O=C(NO)c1ccc(Cn2nnc(-c3cccc(S(F)(F)(F)(F)F)c3)n2)cc1 [comp. 106, 4-[[5-[3-(pentafluoro-lambda6-sulfanyl)phenyl]tetrazol-2-yl]methyl]benzenecarbohydroxamic acid] | 26 |
| O=C(NO)c1ccc(Cn2nnnc2-c2cccc(S(F)(F)(F)(F)F)c2)cc1 [comp. 107, 4-[[5-[3-(pentafluoro-lambda6-sulfanyl)phenyl]tetrazol-1-yl]methyl]benzenecarbohydroxamic acid] | 162 |
| O=C(NO)c1cc(F)c(Cn2nnc(-c3cccc(S(F)(F)(F)(F)F)c3)n2)c(F)c1 [comp. 108, 3,5-difluoro-4-[[5-[3-(pentafluoro-lambda6-sulfanyl)phenyl]tetrazol-2-yl]methyl]benzenecarbohydroxamic acid] | 108 |
| O=C(NO)c1ccc(Cn2nnnc2-c2ccc(S(F)(F)(F)(F)F)cc2)cc1 [comp. 111, 4-[[5-[4-(pentafluoro-lambda6-sulfanyl)phenyl]tetrazol-1-yl]methyl]benzenecarbohydroxamic acid] | 271 |
| O=C(NO)c1cc(F)c(Cn2nnc(-c3ccc(S(F)(F)(F)(F)F)cc3)n2)c(F)c1 [comp. 112, 3,5-difluoro-4-[[5-[4-(pentafluoro-lambda6-sulfanyl)phenyl]tetrazol-2-yl]methyl]benzenecarbohydroxamic acid] | 123 |
| O=C(NO)c1cc(F)c(Cn2nnnc2-c2ccc(S(F)(F)(F)(F)F)cc2)c(F)c1 [comp. 113, 3,5-difluoro-4-[[5-[4-(pentafluoro-lambda6-sulfanyl)phenyl]tetrazol-1-yl]methyl]benzenecarbohydroxamic acid] | 158 |
| Cn1c(Sc2c(F)cc(C(=O)NO)cc2F)nnc1-c1cccc(N2CC[N+](C)([O-])CC2)c1 [comp. 114, 3,5-difluoro-4-[[4-methyl-5-[3-(4-methyl-4-oxido-piperazin-4-ium-1-yl)phenyl]-1,2,4-triazol-3-yl]sulfanyl]benzenecarbohydroxamic acid] | 256 |
